Patent US11203591B2, “Substituted 6-azabenzimidazole compounds” (Gilead Sciences, Inc., priority 2018, dated 2021)

Target: human HPK1 (MAP4K1) (Homo sapiens (Human), UniProt Q92918)
Assay: HPK1 IC50 Assay (TR-FRET peptide phosphorylation)
Format: biochemical
How it was run: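 Readout: TR-FRET (665 nm/620 nm) after EDTA stop, detecting STK S1 peptide (1 μM) phosphorylation by 0.15 nM HPK1 kinase domain, ATP-pre-activated, at 10 μM ATP over 3 h, 25° C, pH 7.0. IC50s from four-parameter variable-slope fits, normalized to staurosporine and DMSO, averaged geometrically.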

[1] = 0.15 nM HPK1, 10 μM ATP, 1 μM STK S1 peptide substrate, geometric mean
[2] = recombinant HPK1 kinase domain 0.15 nM, 10 μM ATP, 1 μM STK S1 peptide, geometric mean of multiple experiments

human HPK1 (MAP4K1), sequence (Q92918 17-274): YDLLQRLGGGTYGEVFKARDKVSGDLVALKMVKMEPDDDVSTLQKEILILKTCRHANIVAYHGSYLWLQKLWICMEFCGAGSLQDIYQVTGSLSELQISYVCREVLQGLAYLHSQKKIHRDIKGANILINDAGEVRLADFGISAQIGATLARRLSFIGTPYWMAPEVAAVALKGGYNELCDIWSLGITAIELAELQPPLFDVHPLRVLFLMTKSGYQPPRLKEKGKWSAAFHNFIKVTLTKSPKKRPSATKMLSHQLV

Row | Structure (SMILES) | IC50 [1] [pM] | IC50 [2] [pM]
1 | Cc1c(C(=O)NCC(F)F)cc(Nc2nc(-c3cc4c(nc3F)C(C)(C)C(=O)N4[C@H]3C[C@@](C)(N4CCCC5(CC5)C4)C3)cc3ncn(C(C)C)c23)c(F)c1F [Example 277, N-(2,2-difluoroethyl)-3,4-difluoro-5-((6-(5-fluoro-3,3-dimethyl-1-((1s,3s)-3-methyl-3-(5-azaspiro[2.5]octan-5-yl)cyclobutyl)-2-oxo-2,3-dihydro-1H-pyrrolo[3,2-b]pyridin-6-yl)-3-isopropyl-3H-imidazo[4,5-c]pyridin-4-yl)amino)-2-methylbenzamide] | 70 | 
2 | CNC(=O)c1cc(Nc2nc(-c3ccc4c(c3)N([C@H]3C[C@@H](N5CCCCC5)C3)C(=O)C43CCN(C(C)=O)CC3)cc3ncn(C4CC4)c23)cc(C)c1C [Example 96] |  | 200
3 | CC(C)n1cnc2cc(-c3cnc4c(c3)N([C@H]3C[C@@](C)(N5CCCCC5)C3)C(=O)C43CCOCC3)nc(Nc3cc(C(=O)NC4(C(F)F)CC4)c(Cl)c(F)c3F)c21 [Example 210, 2-Chloro-N-(1-(difluoromethyl)cyclopropyl)-3,4-difluoro-5-((3-isopropyl-6-(1′-((1s,3s)-3-methyl-3-(piperidin-1-yl)cyclobutyl)-2′-oxo-1′,2,2′,3,5,6-hexahydrospiro[pyran-4,3′-pyrrolo[3,2-b]pyridin]-6′-yl)-3H-imidazo[4,5-c]pyridin-4-yl)amino)benzamide] |  | 80
4 | CNC(=O)c1cc(Nc2nc(-c3ccc4c(c3)N([C@H]3C[C@@H](N5CCC(C(F)F)C5)C3)C(=O)C4(C)C)cc3ncn(C(C)C)c23)ccc1C (some centres unmarked) [Example 104, 5-((6-(1-((1s,3s)-3-(3-(difluoromethyl)pyrrolidin-1-yl)cyclobutyl)-3,3-dimethyl-2-oxoindolin-6-yl)-3-isopropyl-3H-imidazo[4,5-c]pyridin-4-yl)amino)-N,2-dimethylbenzamide] |  | 200
5 | CNC(=O)c1cc(Nc2nc(-c3ccc4c(c3)N([C@H]3C[C@@H](N5CCCCC5)C3)C(=O)C43CCOCC3)cc3ncn(C4CC4)c23)ccc1C [Example 127] |  | 100
6 | Cc1c(C(=O)NCC(F)F)cc(Nc2nc(-c3ccc4c(c3)N([C@H]3C[C@@](C)(N5CCCCC5)C3)C(=O)C4(C)C)cc3ncn(C(C)C)c23)c(F)c1F [Example 268, N-(2,2-difluoroethyl)-5-((6-(3,3-dimethyl-1-((1s,3s)-3-methyl-3-(piperidin-1-yl)cyclobutyl)-2-oxoindolin-6-yl)-3-isopropyl-3H-imidazo[4,5-c]pyridin-4-yl)amino)-3,4-difluoro-2-methylbenzamide] | 30 | 
7 | CNC(=O)c1cc(Nc2nc(-c3ccc4c(c3)N([C@H]3C[C@@H](N5C6CCC5COC6)C3)C(=O)C4(C)C)cc3ncn(C(C)C)c23)c(F)cc1C [Example 8] |  | 80
8 | Cc1c(C(=O)NC2(C(F)F)CC2)cc(Nc2nc(-c3cnc4c(c3)N([C@H]3C[C@@](C)(N5CCCCC5)C3)C(=O)C4(C)C)cc3ncn(C(C)C)c23)c(F)c1F [Example 185, N-(1-(difluoromethyl)cyclopropyl)-5-((6-(3,3-dimethyl-1-((1s,3s)-3-methyl-3-(piperidin-1-yl)cyclobutyl)-2-oxo-2,3-dihydro-1H-pyrrolo[3,2-b]pyridin-6-yl)-3-isopropyl-3H-imidazo[4,5-c]pyridin-4-yl)amino)-3,4-difluoro-2-methylbenzamide] |  | 100
9 | CCC1(CC)C(=O)N([C@H]2C[C@@H](N3CCCCC3)C2)c2cc(-c3cc4ncn(C(C)C)c4c(Nc4ccc(C)c(C(=O)NC)c4)n3)ccc21 [Example 45] |  | 100
10 | CCn1cnc2cc(-c3ccc4c(c3)N([C@H]3C[C@@H](N5CCCCC5)C3)C(=O)C4(C)C)nc(Nc3cc(C(=O)NC)c(C)cc3F)c21 [Example 101] |  | 200
11 | Cc1ccc(Nc2nc(-c3ccc4c(c3)N([C@H]3C[C@@H](NC(=O)C(C)(C)C)C3)C(=O)C4(C)C)cc3ncn(C(C)C)c23)cc1C(N)=O [Example 135, 5-((6-(3,3-dimethyl-2-oxo-1-((1s,3s)-3-pivalamidocyclobutyl)indolin-6-yl)-3-isopropyl-3H-imidazo[4,5-c]pyridin-4-yl)amino)-2-methylbenzamide] |  | 600
12 | Cc1ccc(Nc2nc(-c3ccc4c(c3)N([C@H]3C[C@@H](N5CCCCC5)C3)C(=O)C43CCN(CC(F)F)CC3)cc3ncn(C(C)C)c23)cc1C(=O)NC(C)C [Example 62] |  | 100
13 | CC(C)n1cnc2cc(-c3ccc4c(c3)N([C@H]3C[C@@](C)(N5CCCCC5)C3)C(=O)C4(C)C)nc(Nc3cc(C(=O)NC4(C(F)F)CC4)ccc3F)c21 [Example 238, N-(1-(Difluoromethyl)cyclopropyl)-3-((6-(3,3-dimethyl-1-((1s,3s)-3-methyl-3-(piperidin-1-yl)cyclobutyl)-2-oxoindolin-6-yl)-3-isopropyl-3H-imidazo[4,5-c]pyridin-4-yl)amino)-4-fluorobenzamide] |  | 20
14 | CCNC(=O)c1cc(Nc2nc(-c3ccc4c(c3)N([C@H]3C[C@@](C)(N5CCCCC5)C3)C(=O)C4(C)C)cc3ncn(C(C)C)c23)c(F)cc1Cl [Example 290, 2-chloro-5-((6-(3,3-dimethyl-1-((1s,3s)-3-methyl-3-(piperidin-1-yl)cyclobutyl)-2-oxoindolin-6-yl)-3-isopropyl-3H-imidazo[4,5-c]pyridin-4-yl)amino)-N-ethyl-4-fluorobenzamide] | 70 | 
15 | CNC(=O)c1cc(Nc2nc(-c3ccc4c(c3)N([C@H]3C[C@@H](N5CCC[C@@H](F)C5)C3)C(=O)C4(C)C)cc3ncn(C(C)C)c23)c(F)cc1C [Example 107] |  | 100
16 | CNC(=O)c1cc(Nc2nc(-c3ccc4c(c3)N([C@H]3C[C@@H](N5CCCCC5)C3)C(=O)C43CCN(C4COC4)CC3)cc3ncn(C4CC4)c23)ccc1C [Example 173] |  | 80
17 | CNC(=O)c1cc(Nc2nc(-c3ccc4c(c3)N([C@H]3C[C@@H](N[C@@H]5CCOC[C@H]5C)C3)C(=O)C4(C)C)cc3ncn(C(C)C)c23)ccc1C [Example 13] |  | 100
18 | CNC(=O)c1cc(Nc2nc(-c3ccc4c(c3)N([C@H]3C[C@@H](N5CCCCC5)C3)C(=O)C43CCN(C(C)=O)CC3)cc3ncn(C4CC4)c23)c(F)cc1Cl [Example 93] |  | 200
19 | CNC(=O)c1cc(Nc2nc(-c3ccc4c(c3)N([C@H]3C[C@@H](NC5CCC(F)(F)CC5)C3)C(=O)C4(C)C)cc3ncn(C(C)C)c23)ccc1C [Example 80] |  | 100
20 | Cc1cc(F)c(Nc2nc(-c3ccc4c(c3)N([C@H]3C[C@@H](N5CCC[C@@H](F)C5)C3)C(=O)C43CCN(C4COC4)CC3)cc3ncn(C(C)C)c23)cc1C(=O)NC(C)C [Example 172] |  | 300
21 | CNC(=O)c1cc(Nc2nc(-c3ccc4c(c3)N([C@H]3C[C@@H](N5CCCCC5)C3)C(=O)C4(C)C)cc3ncn(C(C)C)c23)ccc1C1CC1 [Example 142] |  | 200
22 | CC(C)n1cnc2cc(-c3cnc4c(c3)N([C@H]3C[C@@](C)(N5CCC[C@@H](F)C5)C3)C(=O)C4(C)C)nc(Nc3cc(C(=O)NC4(C(F)F)CC4)c(Cl)c(F)c3F)c21 [Example 201, 2-Chloro-N-(1-(difluoromethyl)cyclopropyl)-3,4-difluoro-5-((6-(1-((1S,3s)-3-((R)-3-fluoropiperidin-1-yl)-3-methylcyclobutyl)-3,3-dimethyl-2-oxo-2,3-dihydro-1H-pyrrolo[3,2-b]pyridin-6-yl)-3-isopropyl-3H-imidazo[4,5-c]pyridin-4-yl)amino)benzamide] |  | 200
23 | Cc1c(C(=O)NC2(C(F)F)CC2)cc(Nc2nc(-c3cnc4c(c3)N([C@H]3C[C@@](C)(N5CCC[C@@H](F)C5)C3)C(=O)C4(C)C)cc3ncn(C(C)C)c23)c(F)c1F [Example 196, N-(1-(Difluoromethyl)cyclopropyl)-3,4-difluoro-5-((6-(1-((1S,3s)-3-((R)-3-fluoropiperidin-1-yl)-3-methylcyclobutyl)-3,3-dimethyl-2-oxo-2,3-dihydro-1H-pyrrolo[3,2-b]pyridin-6-yl)-3-isopropyl-3H-imidazo[4,5-c]pyridin-4-yl)amino)-2-methylbenzamide] |  | 100
24 | CC(C)n1cnc2cc(-c3cnc4c(c3)N([C@H]3C[C@@](C)(N5CCCCC5)C3)C(=O)C4(C)C)nc(Nc3cc(C(=O)NC4(C(F)F)CC4)cc(F)c3F)c21 [Example 242, N-(1-(difluoromethyl)cyclopropyl)-3-((6-(3,3-dimethyl-1-((1s,3s)-3-methyl-3-(piperidin-1-yl)cyclobutyl)-2-oxo-2,3-dihydro-1H-pyrrolo[3,2-b]pyridin-6-yl)-3-isopropyl-3H-imidazo[4,5-c]pyridin-4-yl)amino)-4,5-difluorobenzamide] |  | 70
25 | CCNC(=O)c1ccc(F)c(Nc2nc(-c3cnc4c(c3)N([C@H]3C[C@@](C)(N5CCCCC5)C3)C(=O)C4(C)C)cc3ncn(C(C)C)c23)c1 [Example 223, 3-((6-(3,3-Dimethyl-1-((1s,3s)-3-methyl-3-(piperidin-1-yl)cyclobutyl)-2-oxo-2,3-dihydro-1H-pyrrolo[3,2-b]pyridin-6-yl)-3-isopropyl-3H-imidazo[4,5-c]pyridin-4-yl)amino)-N-ethyl-4-fluorobenzamide] |  | 200
26 | CCNC(=O)c1cc(Nc2nc(-c3cnc4c(c3)N([C@H]3C[C@@](C)(N5CCCC6(CC6)C5)C3)C(=O)C4(C)C)cc3ncn(C(C)C)c23)c(F)c(F)c1C [Example 285, 5-((6-(3,3-dimethyl-1-((1s,3s)-3-methyl-3-(5-azaspiro[2.5]octan-5-yl)cyclobutyl)-2-oxo-2,3-dihydro-1H-pyrrolo[3,2-b]pyridin-6-yl)-3-isopropyl-3H-imidazo[4,5-c]pyridin-4-yl)amino)-N-ethyl-3,4-difluoro-2-methylbenzamide] | 100 | 
